Measurements from patent publication US20230129723A1, “EN[…] OF 3,4-METHYLENEDIOXYMETHAMPHETAMINE AND RELATED METABOLITES AND USES THEREOF” (ATAI Life Sciences AG, priority 2021, published 2023).

Legend:
[1] = test system: rat embryonic cortical neuron cultures; assay: Neurite outgrowth in primary rat embryonic cortical neuron cultures, single test articles (Example 1); type: cell-based; conditions: 3 days treatment, compared to 0.1% sterile water vehicle control
Description: Primary rat cortical neuron experimental methods: Female Wistar rats of 17 days gestation were killed by cervical dislocation and the fetuses (typically 6 to 8 in number) were removed from the uterus. Fetal brains were placed in ice-cold medium of Leibovitz (L15, Gibco, France). Cortex was dissected and meninges were carefully removed. The cortical neurons were dissociated by trypsinization (trypsin-EDTA, Gibco) in the presence of DNAse I (Roche, France). The reaction was stopped by addition of Dulbecco's Modified Eagle Medium (DMEM; Gibco) with 10% of fetal bovine serum (FBS; Gibco). The suspension was triturated with a 10-ml pipette and a 21-gauge needle syringe and centrifuged. The pellet of dissociated cells was resuspended in a medium consisting of Neurobasal (Gibco) supplemented with 2% B27 supplement (Gibco), 0.5 mM L-Glutamine (Gibco), and an antibiotic-antimycotic mixture. Viable cells were counted in a Neubauer cytometer and cells were seeded in 96-well plates (Costar) precoated with poly-L-lysine at 10,000 cells/well.
Stock solutions were prepared in sterile water at 10 mM, and stored at −20° C. until use. Further dilution will be performed in culture in the medium on the day of the treatment. 0.1% Sterile water will be present in all tested conditions. The following conditions were tested: 1) Racemic MDMA (10000, 1000, 100, 10, 1, 0.1, 0.01, 0.001 nM), 2) S(+)-MDMA (10000, 1000, 100, 10, 1, 0.1, 0.01, 0.001 nM), 3) R(−)-MDMA (10000, 1000, 100, 10, 1, 0.1, 0.01, 0.001 nM), 4) Racemic MDA (10000, 1000, 100, 10, 1, 0.1, 0.01, 0.001 nM), 5) S(+)-MDA (10000, 1000, 100, 10, 1, 0.1, 0.01, 0.001 nM), and 6) R(−)-MDA (10000, 1000, 100, 10, 1, 0.1, 0.01, 0.001 nM).
The experimental protocol was performed in 2 independent cultures (i.e., from 2 different pregnant rats). For each culture, each condition was tested in sextuplet (6 wells per condition per culture for a total of 12 wells per condition). […] After three days of plating and compound treatment (Day3), cultures were fixed with paraformaldehyde in phosphate buffered saline at 4° C. (PBS, 4%, Sigma). Then, all subsequent steps were performed at room temperature.
Cells were successively permeabilized for 30 minutes using 0.1% triton, saturated with PBS containing 3% bovine serum albumin (BSA) and incubated for 1 hour with anti-beta III tubulin antibody (T5168, Sigma). Cells were first washed 3 times and then were incubated for 1 hour with goat anti-mouse secondary antibody coupled with Alexa Fluor 488 (AF488, Invitrogen A11001). Finally, nuclei were stained with 4′-6-diamidino-2-phenylindole (DAPI). After rinsing the cells with PBS, the plate was imaged and neurite networks were examined and analyzed using a High-Content Screening platform (CellInsight CX5, Thermo Scientific) with integrated Photometrics high-resolution fluorescent camera, Olympus objective (10×) and HCS Studio Cell Analysis Software.
Approximately 2,000 neurons per well were analyzed using a validated cortex neuron outgrowth algorithm that utilizes parameters optimized for analysis of embryonic rat cortical neuron cultures. The HCS Studio Cell Analysis Software output will include values for neurite number total count, neurite total length (μm) and total number of branch points for each of the 6 wells per culture. The evaluation of neurite outgrowth was performed using the average number of neurites per neuron, the average total neurite length per neuron (μm) and the average number of branch points per neuron across 12 wells. Data also were transformed to percent (%) of the average vehicle control value. Results were expressed as mean (±s.e.m.) of the transformed (% of vehicle control) data. Statistical analyses were performed on transformed percent of the average vehicle control data for each measure for each test article using one-way analysis of variance (Anova, StatView or GraphPad Prism). Where applicable, Dunnett's test was used for multiple pairwise comparisons to the negative control (vehicle) condition. […]

[2] = test system: rat embryonic cortical neuron cultures; assay: Neurite outgrowth in primary rat embryonic cortical neuron cultures, racemic and non-racemic R(−)/S(+)-MDMA mixtures (Example 2); type: cell-based; conditions: concentrations of R(−)- and S(+)-MDMA as in the label (alone: 10 uM), 3 days treatment, compared to vehicle control, Anova/Dunnett p<0.05
Description: Primary rat cortical neuron experimental methods: Female Wistar rats of 17 days gestation are killed by cervical dislocation and the fetuses (typically 6 to 8 in number) are removed from the uterus. Their brains are placed in ice-cold medium of Leibovitz (L15, Gibco, France). Cortex is dissected and meninges are carefully removed. The cortical neurons are dissociated by trypsinization (trypsin-EDTA, Gibco) in presence of DNAse I (Roche, France). The reaction is stopped by addition of Dulbecco's Modified Eagle Medium (DMEM; Gibco) with 10% of fetal bovine serum (FBS; Gibco). The suspension is triturated with a 10-ml pipette and using a needle syringe 21G and centrifuged. The pellet of dissociated cells is resuspended in a medium consisting of Neurobasal (Gibco) supplemented with 2% B27 supplement (Gibco), 0.5 mM L-Glutamine (Gibco), an antibiotic-antimycotic mixture. Viable cells are counted in a Neubauer cytometer and cells are seeded in 96-well plate (Costar) precoated with poly-L-lysine at 10 000cells/well.
The protocol is performed in either 1 or 2 independent cultures (i.e., from 1 or 2 different pregnant rats). For each culture, each condition is performed in sextuplet (6 wells per condition per culture from 1 rat, or a total of 12 wells per condition when 2 rats/cultures are used).
Cells are treated with the test compounds R(−)-MDMA and S(+)-MDMA as described in the following Tables below.
After three days of plating and test compound treatment (Day3), cultures are fixed with paraformaldehyde in phosphate buffered saline at 4° C. (PBS, 4%, Sigma). Then all steps will be performed at room temperature. Cells are successively permeabilized 30 min using 0.1% triton, saturated with PBS containing 3% bovine serum albumin (BSA) and incubated 1 h with anti-beta III tubulin antibody (T5168, Sigma). Cells are first washed 3 times and are then incubated 1 h with goat anti-mouse secondary antibody coupled with Alexa Fluor 488 (AF488, Invitrogen A11001). Finally, nuclei are stained with 4′-6-diamidino-2-phenylindole (DAPI). After rinsing the cells with PBS, the plate is filmed and neurite networks are examined and analyzed using a High-Content Screening platform (CellInsight CX5, Thermo Scientific) with integrated Photometrics high-resolution fluorescent camera, Olympus objective (10×) and HCS Studio Cell Analysis Software.
Approximately 2000 neurons per well were analyzed using a validated Cortex Neuron Outgrowth algorithm established by Neurofit that utilizes parameters optimized for analysis of embryonic rat cortical neuron cultures. The HCS Studio Cell Analysis Software output will include values for neurite total count number, neurite total length (μm) and total number of branch points for each of the 6 wells per culture. The evaluation of neurite outgrowth was performed using the average number of neurites per neuron, the average of total neurite length per neuron (μm) and the average number of branchpoint per neuron across 6 wells of each culture (6 wells total (1 rat used) or 12 wells total (2 rats used). Data were transformed to % of the average vehicle control value.

[3] = at any tested concentration (0.001-10000 nM)

Structure (SMILES)	neurite number [1, 3]	neurite total length (μm) [1, 3]	total number of branch points [1, 3]	neurite number ([1]; at 0.0001 μM)	neurite number ([1]; at 10 μM, Anova/Dunnett p<0.05)	neurite total length (μm) ([1]; at 10 μM, Anova/Dunnett p<0.05)	total number of branch points ([1]; at 10 μM, Anova/Dunnett p<0.05)	average number of branchpoints per neuron [2]	average number of neurites per neuron [2]	average total neurite length per neuron [2]
CC(N)Cc1ccc2c(c1)OCO2 (racemic) [racemic R,S(+/−)-MDA, 3,4-methylenedioxyamphetamine, reference compound]	did not significantly alter	did not significantly alter	did not significantly alter	–	–	–	–	–	–	–
CN[C@H](C)Cc1ccc2c(c1)OCO2 [R(−)-MDMA, (R)-3,4-methylenedioxymethamphetamine]	–	–	–	significantly increased	significantly increased	significantly increased	significantly increased	did not have significant effects	did not have significant effects	significantly induced
C[C@H](N)Cc1ccc2c(c1)OCO2 [S(+)-MDA]	did not significantly alter	did not significantly alter	did not significantly alter	–	–	–	–	–	–	–
CN[C@@H](C)Cc1ccc2c(c1)OCO2 [S(+)-MDMA]	did not significantly alter	did not significantly alter	did not significantly alter	–	–	–	–	did not significantly induce	did not significantly induce	did not significantly induce
CNC(C)Cc1ccc2c(c1)OCO2 (racemic) [Racemic R,S(+/−)-MDMA, 3,4-Methylenedioxymethamphetamine]	–	–	–	–	significantly increased	significantly increased	significantly increased	–	–	–
C[C@@H](N)Cc1ccc2c(c1)OCO2 [R(−)-MDA]	did not significantly alter	did not significantly alter	did not significantly alter	–	–	–	–	–	–	–
